According to US20080293818A1, “Regulator of Physiological Function of Ghrelin and Use Thereof” (priority 2004, published 2008):
Marks after values point to notes of the source that are not given here.

Experiments:
Type in all cases: in vivo, mouse
[1] = system: des-acyl and acyl-modified ghrelin peptides in the stomach; test: Molecular forms of stomach ghrelin peptide after ingestion (HPLC fractionation, C-RIA); conditions: mice; for stomach ghrelin modified by the acyl group corresponding to the ingested lipid: HPLC peak; for C6:0-ghrelin (n-hexanoyl ghrelin) concentration in the stomach / C8:0-ghrelin (n-octanoyl ghrelin) concentration in the stomach / C10:0-ghrelin (n-decanoyl ghrelin) concentration in the stomach / Des-acyl ghrelin concentration in the stomach / C10:1-ghrelin (n-decenoyl ghrelin) concentration in the stomach: 5% (w/w) in chow, 14 days, from 0.2 mg wet weight, C-RIA after HPLC, mean ± S.D.; for C10:1-ghrelin (n-decenoyl ghrelin) concentration in the stomach: fraction holds unidentified ghrelin molecules too
Description: (§1) Male C57BL/6J mice weighing 20-25 g (10-12 week old) were maintained under controlled temperature (21-23° C.) and light conditions (light on 0700-1900) with ad libitum access to food and water. Medium-chain fatty acids (MCFAs), i.e., n-hexanoic, n-octanoic, and n-lauric acids (Sigma-Aldrich Japan Co., Ltd., Tokyo), were dissolved in water at 5 mg/ml. n-Palmitic acid, a common long-chain fatty acid (LCFA) (Sigma-Aldrich Japan Co., Ltd., Tokyo), was mixed into standard laboratory chow (CLEA Rodent Diet CE-2, CLEA Japan, Osaka) at a concentration of 1% (w/w), to equilibrate the total intake amount of this lipid to the other medium-chain fatty acids contained in the food. Medium- and long-chain triglycerides (MCTs and LCTs), i.e., glyceryl trihexanoate, trioctanoate, tridecanoate and tripalmitates (Wako Pure Chemical, Osaka, Japan), were mixed with standard laboratory chow at a concentration of 5% (w/w). Whole stomach tissues from treated mice were collected at the indicated times (0-14 days) after ingesting the free fatty acid- or triacylglyceride-containing food. Fresh tissue samples from these mice were diced and boiled for 5 minutes in a 10-fold volume of water. The tissue-containing solution was then adjusted to 1M acetic acid after cooling and then homogenized with a Polytron mixer. The supernatant, obtained after centrifugation at 15,000 rpm for 15 minutes, was then lyophilized. The lyophilized material was dissolved in RIA buffer and subjected to ghrelin C- and N-RIA. To elucidate the forms of ghrelin peptides modified by different acyl groups, extracted stomach peptides were collected using a Sep-Pak Plus C18 cartridge (Waters, Milford, Mass.) and subjected to C18 RP-HPLC (Symmetry 300, 3.9×150 mm, Waters) with a linear gradient from 10 to 60% CH3CN/0.1% TFA at a flow rate of 1.0 ml/minute for 40 minutes. Five hundred micro-litter fractions were collected. Ghrelin peptide content in each fraction was measured by ghrelin C- and N-RIA as described above. Degradation of ghrelin was not observed during the extraction.
To clarify what molecular forms of ghrelin peptide are present after the ingestion of triacylglycerol (triacylglycerin), peptide extracts from stomachs of mouse fed chow containing glyceryl trihexanoate (C6:0-MCT), glyceryl trioctanoate (C8:0-MCT), glyceryl tridecanoate (C10:0-MCT), and standard laboratory chow (Control) were fractionated by HPLC, and measured for ghrelin immunoreactivity by C-RIA. […] Based on the observed retention times of synthetic acyl-modified ghrelin peptides, peaks a, d, h, and k corresponded to des-acyl ghrelin, peaks b, f, i, and 1 corresponded to n-octanoyl (C8:0) ghrelin, and peaks c, g, j, and m corresponded to n-decenoyl (10:1) ghrelin.
Male C57BL/6J mice were fed chow mixed with 5% (w/w) glyceryl trihexanoate (C6:0-MCT), glyceryl trioctanoate (C8:0-MCT), or glyceryl tri-decanoate (C10:0-MCT) for 14 days. The concentrations of des-acyl ghrelin, n-hexanoyl ghrelin (C6:0-ghrelin), n-octanoyl ghrelin (C8:0-ghrelin), n-decenoyl ghrelin (C10:1-ghrelin), and n-decanoyl ghrelin (C10:0-ghrelin) from stomach samples (from 0.2 mg wet weight) were measured by ghrelin C-RIA after HPLC fractionation.

[2] = system: acyl-modified and total ghrelin in the stomach; test: Stomach ghrelin content after medium- to long-chain triacylglycerol ingestion (N-RIA / C-RIA); conditions: mice, 5% (w/w) in chow, two weeks; for production of acyl-modified ghrelin in stomach tissue: N-RIA
Description: (§2) RIAs specific for ghrelin were performed as previously described [D2]. Two polyclonal antibodies were raised in rabbits against the N-terminal (Gly^1-Lys^11 with O-n-octanoylation at Ser^3) and C-terminal (Gln^13-Arg^28) fragments of rat ghrelin. RIA incubation mixtures were composed of 100 μl of either standard ghrelin or an unknown sample, with 200 μl of antiserum diluted in RIA buffer (50 mM sodium phosphate buffer (pH 7.4), 0.5% BSA, 0.5% Triton-X100, 80 mM sodium chloride (NaCl), 25 mM disodium ethylenediamine-tetraacetate (EDTA 2-Na) and 0.05% sodium azide (NaN3)) containing 0.5% normal rabbit serum. Anti-rat ghrelin [D1-D11] and anti-rat ghrelin [D13-D28] antisera were used at final dilutions of 1/3,000,000 and 1/20,000, respectively. After a 12-hour incubation at 4° C., 100 μl of ^125I-labeled ligand (20,000 cpm) was added for an additional 36-hour incubation. Then, 100 μl of anti-rabbit goat antibody was added. After incubation for 24 hours at 4° C., free and bound tracers were separated by centrifugation at 3,000 rpm for 30 min. Pellet radioactivity was quantified in a gamma counter (ARC-600, Aloka, Tokyo). All assays were performed in duplicate at 4° C.
as §1
Orally ingested triacylglycerols are intraluminally hydrolyzed and absorbed through the gastro-intestinal mucosa as free fatty acids or monoglycerides. Thus, ingested triacylglycerols may serve as a source of free fatty acids [D26]. To examine if ingested triacylglycerols are used for acyl-modification of ghrelin, mice were fed chow mixed with 5% (w/w) glyceryl trihexanoate (C6), trioctanoate (C8), tridecanoate (C10), and tripalmintate (C16). After two weeks, gastric peptides were extracted. Ghrelin concentration in the stomach of these mice and in that from mice fed standard laboratory chow (Control) (n=8) are shown. The content of acyl-modified and total ghrelins was measured by N- and C-RIA. […]

[3] = system: acyl-modified and total ghrelin in the stomach; test: Stomach ghrelin content after free fatty acid ingestion (N-RIA / C-RIA); conditions: mice, 14 days; for total ghrelin concentration in the stomach vs control: C-RIA
Description: as §2
Stomachs collected from either mice or rats were washed two times in phosphate buffered physiological saline (pH 7.4). After measuring the wet weight of each sample, the whole stomach tissue was diced and boiled for 5 minutes in a 10-fold volume of water to inactivate intrinsic proteases. After cooling on ice, boiled samples were adjusted to 1 M acetic acid-20 mM hydrochloric acid (HCl). Peptides were extracted following homogenization with a Polytron mixer (PT 6100, Kinematica AG, Littan-Luzern, Switzerland). Extract supernatants, isolated following 15-minute-centrifugation at 15,000 rpm (12,000×g), were lyophilized and stored at −80° C. The lyophilized samples were redissolved in either RIA buffer or calcium mobilization assay buffer prior to ghrelin RIA or calcium mobilization assay, respectively.
as §1, with “Degradation of ghrelin was not observed during the extraction.” left out

[4] = system: n-heptanoyl ghrelin in the stomach; test: Molecular forms of stomach ghrelin after glyceryl triheptanoate ingestion (HPLC, C-RIA and N-RIA); conditions: mice, HPLC, C-RIA / N-RIA
Description: as §1
Male C57BL/6J mice weighing 20-25 g (10-12 week old) were maintained under controlled temperature (21-23° C.) and light conditions (light on 0700-1900) with ad libitum access to food and water. Glyceryl triheptanoate (Fluka Chemie GmbH, Buchs, Switzerland) was mixed with standard laboratory chow at a concentration of 5% (w/w). Four days after mice were fed glyceryl triheptanoate-containing food, stomachs (total 1,000 mg) were recovered from mice (n=7). The total consumption of glyceryl triheptanoate-containing food was approximately 13.5 g/mouse, amounting to 675 mg total glyceryl triheptanoate ingested by each mouse. Stomachs were minced and boiled for 5 minutes in 5× volumes of water to inactivate intrinsic proteases. […]

Compound	stomach ghrelin modified by the acyl group corresponding to the ingested lipid ([1]; C-RIA)	production of acyl-modified ghrelin in stomach tissue [2]	total ghrelin concentration in the stomach vs control [3]	gastric concentration of acyl-modified ghrelin vs control ([3]; N-RIA)	also measured
CCCC(=O)OCC(COC(=O)CCC)OC(=O)CCC [glyceryl tributyrate]	not observed				
CCCCCCCCCCCCC(=O)OCC(O)CO (centres unmarked) [glyceryl tridecanoate]	increased	no effect			molar ratio of acyl-modified ghrelin/total ghrelin [2]: increased; C6:0-ghrelin (n-hexanoyl ghrelin) concentration in the stomach [1]: 22.1 ± 6.1; C8:0-ghrelin (n-octanoyl ghrelin) concentration in the stomach [1]: 460.0 ± 70.6; C10:0-ghrelin (n-decanoyl ghrelin) concentration in the stomach [1]: 95.1 ± 9.7^a); Des-acyl ghrelin concentration in the stomach [1]: 181.4 ± 31.5^c); C10:1-ghrelin (n-decenoyl ghrelin) concentration in the stomach [1]: 64.5 ± 14.2^b)
CCCCCC(=O)OCC(COC(=O)CCCCC)OC(=O)CCCCC [glyceryl trihexanoate]	increased drastically	slightly suppressed			molar ratio of acyl-modified ghrelin/total ghrelin [2]: decreased significantly; C6:0-ghrelin (n-hexanoyl ghrelin) concentration in the stomach [1]: 237.3 ± 35.0^a); C8:0-ghrelin (n-octanoyl ghrelin) concentration in the stomach [1]: 358.0 ± 33.0^b); C10:0-ghrelin (n-decanoyl ghrelin) concentration in the stomach [1]: 14.1 ± 5.2; Des-acyl ghrelin concentration in the stomach [1]: 245.0 ± 11.0; C10:1-ghrelin (n-decenoyl ghrelin) concentration in the stomach [1]: 133.5 ± 12.1^b); n-octanoyl ghrelin concentration in the stomach vs control ([1]; HPLC peak f, C-RIA): significant decreases
CCCCCCCCCCCCCCCC(=O)OCC(COC(=O)CCCCCCCCCCCCCCC)OC(=O)CCCCCCCCCCCCCCC [glyceryl tripalmitate]	not observed	no effect			
CCCCCCCCCC(=O)O [n-decanoic acid]	increased		No significant changes	No significant changes	
CCCCCCC(=O)O [n-heptanoic acid]					appearance of peak b / d (n-heptanoyl ghrelin) immunoreactivity in stomach extracts [4]: also detected
CCCCCC(=O)O [n-hexanoic acid]	increased		No significant changes	No significant changes	
CCCCCCCC(=O)O [n-octanoic acid]	increased		No significant changes	increased significantly	ratio of n-octanoyl ghrelin/total ghrelin [3]: increased; mean concentration of acyl-modified ghrelin in the stomach ([3]; N-RIA, n=8, control 1,795): 2,455 fmol/mg wet weight
CCCCCCCCCCCC(=O)OCC(COC(=O)CCCCCCCCCCC)OC(=O)CCCCCCCCCCC [trilaurate]	not observed				
n-palmitic acid			No significant changes	No significant changes	
